Series [1] deals with purified recombinant beta glucuronidase (KURA). Description: Storage stability of analytical standards in ready-to-use test kits at −20° C. with recombinant beta-glucuronidase. The class given is physicochemical. The following applies: for stability of the standard in ready-to-use kits (free drug degradant peak area normalized to codeine): kits made with suspended solid state and solid state (direct enzyme interface, urine matrix interface) technology, snap frozen at −20° C., LC-MS/MS. As for the experimental part: (§1) Both (A) purified recombinant beta glucuronidase (KURA) and (B) beta glucuronidase purified from abalone tissue show similar results. Complete degradation was estimated by incubating the buprenorphine glucuronic acid standard under optimum reaction conditions for 1 hr. Negative controls were processed like that of mixed kits but excluded the respective beta-glucuronidase enzyme to measure non-specific degradation. All samples were extracted with acetonitrile prior to analysis using a liquid chromatography tandem mass spectrometry method optimized for buprenorphine. Where possible beta-glucuronidase enzyme was removed from suspended solid state, direct enzyme, and urine matrix samples prior to extraction. Acetonitrile was directly added to frozen mixed kits and negative controls to immediately degrade the beta glucuronidase enzyme. Removal of enzyme prior to extraction and the quick addition of acetonitrile limited degradation associated with sample processing and provided a better measurement of storage stability. Peak area of the degradant (free drug) was normalized to the response of codeine which was included to control for day-to-day and analytical variation. Data are presented as average±standard deviation (n=3-4). All experimental groups were manufactured and snap frozen at −20° C. prior to analysis.
(§2) Therefore, novel technology is required to stabilize process control specimens if ready-to-use formats are to be developed for analytical laboratories. Three new technologies (suspended solid state, direct enzyme interface, and urine matrix interface technology) were investigated to determine their utility in ready-to-use analytical test kit designs. While all three technologies afforded significant protection and stabilized the manufacturing process, only the suspended state and urine matrix technologies provided complete stability for 14 days in kits stored at −20° C.
(§3) The amount of degradation is independent of the source of the beta glucuronidase and remains constant for 14 days when kits are stored at −20° C. This storage temperature was selected because it is mostly commonly utilized by analytical testing laboratories. Degradation is specifically associated with manufacturing and storage because acetonitrile used for sample extraction was added immediately to frozen kits to degrade the beta-glucuronidase enzyme prior to sample processing and where possible (solid-state, direct enzyme interface, and matrix interface samples) the beta-glucuronidase enzyme was removed prior to sample extraction. These measures minimized any degradation that may have occurred during sample processing.
A 48-well plate from Innovative Labs (48 Rectangular Well U-Bottom 42.60 mm Height, 4.6 mL capacity) was formulated with various combinations of a mixture of glucuronidated drugs purchased from Cerilliant, Round Rock Texas, US (see details in table below), abalone enzyme (item #CST208) from ChemSci technologies, Belvidere IL, USA, Recombinant B-One (item #B-One-100 mL) enzyme from Kura Bioscience, buffer solution made with 5 mL of acetic acid and 7.71 g of ammonium acetate in 995 mL of pure water, and blank urine (item #OH2060) from Golden West Diagnostics.
Wells E1, F1, G1, and H1 designated as “Kura Pos. control drugs+Enz” contain the glucuronide drug standards in 50 μL DMSO mixed with […] of water and […] of Kura enzyme. The materials in this well were stored in frozen state before use.
Wells A3, B3, C3, and D3 designated as “DB pop removed Kura” contain the glucuronide drug standards in 50 μL DMSO and a suspended frozen mixture of […] of water and […] of Kura enzyme (see example 5: manufacturing process D). The materials in this well were stored in frozen state before use and the frozen enzyme and water mixture was removed prior to analysis of the well contents.

The subject of series [2] is beta glucuronidase purified from abalone tissue. Description: Storage stability of analytical standards in ready-to-use test kits at −20° C. with abalone beta-glucuronidase. The class given is physicochemical. The following applies: for stability of the standard in ready-to-use kits (free drug degradant peak area normalized to codeine): kits made with suspended solid state and solid state (direct enzyme interface, urine matrix interface) technology, snap frozen at −20° C., LC-MS/MS; for stability of the standard, suspended solid state technology / stability of the standard, urine matrix interface technology: up to 14 days. As to the method:
as §1
FIG. 5. […] Negative controls were processed like that of mixed kits but excluded the respective beta-glucuronidase enzyme to measure non-specific degradation. Since 6-MAM was directly assayed complete degradation was estimated at the limit of detection (S/N≤10) established for the liquid chromatography tandem mass spectrometry method optimized for 6-MAM detection. All samples were extracted with acetonitrile prior to analysis. Where possible beta-glucuronidase enzyme was removed from suspended solid state, direct enzyme, and urine matrix samples prior to extraction. Acetonitrile was directly added to frozen mixed kits and negative controls to immediately degrade beta glucuronidase enzyme. Removal of enzyme prior to extraction and the quick addition of acetonitrile limited degradation associated with sample processing and provided a better measurement of storage stability. Peak area of 6-MAM was normalized to the response of codeine which was included to control for day-to-day and analytical variation. Data are presented as average±standard deviation (n=3-4). All experimental groups were manufactured and snap frozen at −20° C. prior to analysis.
as §2, §3

Setting [3] is: mixed kits, snap frozen and stored at −20° C.
[4] abbreviates: kits stored at −20° C., up to 14 days.

Structures are written as SMILES. Entries after “also recorded” stand apart in the source; their conditions may differ.

Turning to `CO[C@]12CC[C@@]3(C[C@@H]1[C@](C)(O)C(C)(C)C)[C@H]1Cc4ccc(O[C@@H]5O[C@H](C(=O)O)[C@@H](O)[C@H](O)[C@H]5O)c5c4[C@@]3(CCN1CC1CC1)[C@H]2O5` [buprenorphine glucuronic acid standard, Buprenorphine-3-beta-D-glucuronide], the “stability of the standard in ready-to-use kits (free drug degradant peak area normalized to codeine)” value is “fully protected and stabilized” in series [1]; “fully protected and stabilized” in series [2].
Regarding `C[N+](C)(CCC=C1c2ccccc2CCc2ccccc21)[C@@H]1O[C@H](C(=O)[O-])[C@@H](O)[C@@H](O)[C@H]1O` [amitriptyline glucuronic acid standard, Amitriptyline N-beta-D-glucuronide], the “stability of the standard in ready-to-use kits (free drug degradant peak area normalized to codeine)” value in series [1] is “fully protected and stabilized”; in series [2], “fully protected and stabilized”.
Turning to `CC(=O)O[C@H]1C=C[C@H]2[C@H]3Cc4ccc(O)c5c4[C@@]2(CCN3C)[C@H]1O5` [6-MAM, 6-monoacetylmorphine], the “stability of the standard in kits that mix enzyme with the analytical standard” value in series [1] (setting [3]) was “no 6-MAM degradation occurred”. Besides, in series [2] (kits stored at −20° C.), the “stability of the standard, direct enzyme interface technology” value is listed as “slowed the rate of degradation but did not prevent 6-MAM degradation”; the “stability of the standard, suspended solid state technology” value was “fully protected; also recorded: fully protects and stabilizes”; the “stability of the standard, urine matrix interface technology” value is “slowed the rate of degradation but did not prevent 6-MAM degradation”. Besides, in series [2] (mixed kits stored at −20° C.), the “time to significant degradation in mixed kits” value is listed as not above 4 days. Further, the “stability of the standard in kits that mix enzyme with the analytical standard” value in series [2] (setting [3]) was “not stable”. Also, the “degradation during the manufacturing process (day 0) in mixed kits” value in series [2] (snap freezing at −20° C., day 0) is given as “no degradation occurred”.
Consider `CN1CC[C@]23c4c5ccc(O[C@@H]6O[C@H](C(=O)O)[C@@H](O)[C@H](O)[C@H]6O)c4O[C@H]2C(=O)CC[C@H]3[C@H]1C5` [hydromorphone glucuronic acid standard, Hydromorphone 3-beta-D-glucuronide], for which the “stability of the standard in ready-to-use kits (free drug degradant peak area normalized to codeine)” value in series [1] was “fully protected and stabilized”; in series [2] it was “fully protected and stabilized”.
Take `O=C1Nc2ccc(Cl)cc2C(c2ccccc2Cl)=NC1O[C@@H]1O[C@H](C(=O)O)[C@@H](O)[C@H](O)[C@H]1O` (stereo partly shown) [lorazepam glucuronic acid standard, Lorazepam glucuronide]: the “stability of the standard in ready-to-use kits (free drug degradant peak area normalized to codeine)” value in series [1] was “fully protected and stabilized”. In series [1] (kits stored at −20° C.), the “day at which complete degradation occurred, direct enzyme interface technology” value is 14 day; the “day at which significant degradation was detected, direct enzyme interface technology” value is 4 day; the “storage time for which the standard was protected, direct enzyme interface technology” value is on record as 1 day. For the same molecule, in series [1] (setting [4]), the “stability of the standard, suspended solid state technology” value was “fully protected” and the “stability of the standard, urine matrix interface technology” value is “fully protected”. Besides, the “stability of the standard in ready-to-use kits (free drug degradant peak area normalized to codeine)” value in series [2] was “fully protected and stabilized”. In addition, in series [2] (kits stored at −20° C.), the “day at which complete degradation occurred, direct enzyme interface technology” value is on record as 14 day; the “day at which significant degradation was detected, direct enzyme interface technology” value was determined as 4 day; the “storage time for which the standard was protected, direct enzyme interface technology” value worked out at 1 day; the “stability of the standard, suspended solid state technology” value was “fully protected”. The “stability of the standard, urine matrix interface technology” value in series [2] (kits stored at −20° C.) is “fully protected”.

For the origin of these results see patent US20250224410A1, “READY-TO-[…] FOR CHEMICAL ANALYSES AND QUANTIFICATION OF ANALYTES IN BIOLOGICAL SAMPLES” (PinPoint Testing, LLC, priority 2021, published 2025).
